molecular target: T1, human GPR119 (Homo sapiens, UniProt Q8TDV5); assay: cAMP assay (LANCE cAMP kit), activation of GPR119; format: cell-based; details: HEK293 cells expressing human GPR119; increase in cAMP levels
T1 construct: expressed in transfected cells; host or cells: HEK293
T1 sequence (Q8TDV5 1-335): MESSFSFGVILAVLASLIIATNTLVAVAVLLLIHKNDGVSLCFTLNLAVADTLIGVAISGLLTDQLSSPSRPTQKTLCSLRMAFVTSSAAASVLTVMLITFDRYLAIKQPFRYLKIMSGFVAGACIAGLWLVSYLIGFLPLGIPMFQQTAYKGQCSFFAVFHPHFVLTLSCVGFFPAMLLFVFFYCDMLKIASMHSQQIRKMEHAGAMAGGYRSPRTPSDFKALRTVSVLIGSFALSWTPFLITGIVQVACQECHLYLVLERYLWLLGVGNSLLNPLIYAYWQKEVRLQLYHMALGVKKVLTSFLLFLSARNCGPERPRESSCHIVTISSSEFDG
Procedure: The ability of illustrative compounds of the invention to activate GPR119 and stimulate increases in cAMP levels was determined using the LANCE™ cAMP kit (Perkin Elmer). HEK293 cells expressing human GPR119 were maintained in culture flasks at 37° C./5% CO2 in DMEM containing 10% fetal bovine serum, 100 U/ml Pen/Strep, and 0.5 mg/ml geneticin. The media was changed to Optimem and cells were incubated overnight at 37° C./5% CO2. The Optimem was then aspirated and the cells were removed from the flasks using room temperature Hank's balanced saline solution (HBSS). The cells were pelleted using centrifugation (1300 rpm, 7 minutes, room temperature), then resuspended in stimulation buffer (HBSS, 0.1% BSA, 5 mM HEPES, 15 μM RO-20) at 2.5×10^6 cells/mL. Alexa Fluor 647-anti cAMP antibody (1:100) was then added to the cell suspension and incubated for 30 minutes. A representative Fused Bicyclic Pyrimidine Derivative (6 μl at 2× concentration) in stimulation buffer containing 2% DMSO were then added to white 384 well Matrix plates. Cell suspension mix (6 μl) was added to each well and incubated with the Fused Bicyclic Pyrimidine Derivative for 30 minutes. A cAMP standard curve was also created in each assay according to the kit protocol. Standard concentrations of cAMP in stimulation buffer (6 μl) were added to white 384 well plates. Subsequently, 6 μl of 1:100 anti-cAMP antibody was added to each well. Following the 30 minute incubation period, 12 μl of detection mix (included in kit) was added to all wells and incubated for 2-3 hours at room temperature. Fluorescence was detected on the plates using an Envision instrument. The level of cAMP in each well is determined by extrapolation from the cAMP standard curve.

| EC50 | Compound |
| --- | --- |
| 100 to 500 nM | CC(C)OC(=O)N1CC2COCC(C1)C2Oc1ncnc2c1OCCN2c1ccc(C#N)cc1F (stereo not drawn) [Compound 55] |
| < 50 nM | Cc1c(F)ccc(-n2ccc3c(OC4C5COCC4CN(C(=O)OC4(C)CC4)C5)ncnc32)c1F (stereo not drawn) [Compound 18] |
| 100 to 500 nM | CC1(OC(=O)N2CC3COCC(C2)C3Oc2ncnc3c2ccn3-c2ccc(S(C)(=O)=O)cc2F)CC1 (stereo not drawn) [Compound 28] |
| 100 to 500 nM | Cn1cc(-c2ccc(-n3ncc4c(OC5C6COCC5CN(C(=O)OC5(C)CC5)C6)ncnc43)c(F)c2)cn1 (stereo not drawn) [Compound 48] |
| < 50 nM | CC(C)(C)OC(=O)N1CC2COCC(C1)C2Oc1ncnc2c1ccn2-c1c(F)cccc1F (stereo not drawn) [Compound 14] |
| 100 to 500 nM | Fc1ccc(N2CCc3c(OC4C5COCC4CN(c4ncc(Cl)cn4)C5)ncnc32)c(F)c1 (stereo not drawn) [Compound 13] |
| < 50 nM | CC(C)(C)OC(=O)N1CC2COCC(C1)C2Oc1ncnc2c1ccn2-c1ccc(C#N)cc1F (stereo not drawn) [Compound 2] |
| < 50 nM | CC1(OC(=O)N2CC3COCC(C2)C3Oc2ncnc3c2cnn3-c2ccc(C#N)cc2F)CC1 (stereo not drawn) [Compound 37] |
| < 50 nM | CC1OC(C)C2CN(C(=O)OC3(C)CC3)CC1C2Oc1ncnc2c1cnn2-c1ccc(C#N)cc1F (stereo not drawn) [Compound 38] |
| 50 to 100 nM | Cc1c(F)ccc(-n2ccc3c(OC4C5COCC4CN(C(=O)OC(C)(C)C)C5)ncnc32)c1F (stereo not drawn) [Compound 17] |
| < 50 nM | CC1(OC(=O)N2CC3COCC(C2)C3Oc2ncnc3c2ccn3-c2c(F)cccc2F)CC1 (stereo not drawn) [Compound 19] |
| 100 to 500 nM | CC1(OC(=O)N2CC3COCC(C2)C3Oc2ncnc3c2ncn3-c2ccc(Br)cc2F)CC1 (stereo not drawn) [Compound 47] |
| 100 to 500 nM | CC(C)(C)OC(=O)N1CC2COCC(C1)C2Oc1ncnc2c1ccn2-c1ccc(S(C)(=O)=O)cc1F (stereo not drawn) [Compound 26] |
| 500 to 1000 nM | CS(=O)(=O)c1ccc(-n2cnc3c(OC4C5COCC4CN(c4ncc(Cl)cn4)C5)ncnc32)c(F)c1 (stereo not drawn) [Compound 34] |
| < 50 nM | CC(C)(C)OC(=O)N1CC2COCC(C1)C2Oc1ncnc2c1ccn2-c1c(F)cc(F)cc1F (stereo not drawn) [Compound 32] |
| 500 to 1000 nM | Cc1nc2c(OC3C4COCC3CN(C(=O)OC3(C)CC3)C4)ncnc2n1-c1ccc(C#N)cc1F (stereo not drawn) [Compound 42] |
| < 50 nM | CC1(OC(=O)N2CC3COCC(C2)C3Oc2ncnc3c2cnn3-c2ccc(C#N)cc2F)CC1 (stereo not drawn) [Compound 36] |
| 100 to 500 nM | CC1OC(C)C2CN(C(=O)OC3(C)CC3)CC1C2Oc1ncnc2c1cnn2-c1ccc(C#N)cc1F (stereo not drawn) [Compound 39] |
| < 50 nM | CC(C)(C)OC(=O)N1CC2COCC(C1)C2Oc1ncnc2c1CCN2c1ccc(F)cc1F (stereo not drawn) [Compound 9] |
| < 50 nM | CC(C)(C)OC(=O)N1CC2COCC(C1)C2Oc1ncnc2c1ccn2-c1ccc(F)cc1F (stereo not drawn) [Compound 7] |
| < 50 nM | CS(=O)(=O)c1ccc(-n2ccc3c(OC4C5COCC4CN(c4ncc(Cl)cn4)C5)ncnc32)c(F)c1 (stereo not drawn) [Compound 27] |
| 50 to 100 nM | Cc1c(F)ccc(-n2ccc3c(OC4C5COCC4CN(C(=O)OC4(C)CC4)C5)ncnc32)c1C#N (stereo not drawn) [Compound 22] |
| < 50 nM | Cc1c(F)ccc(-n2ccc3c(OC4C5COCC4CN(C(=O)OC(C)(C)C)C5)ncnc32)c1F (stereo not drawn) [Compound 16] |
| 100 to 500 nM | Cc1c(F)ccc(-n2ccc3c(OC4C5COCC4CN(C(=O)OC(C)(C)C)C5)ncnc32)c1C#N (stereo not drawn) [Compound 20] |
| < 50 nM | CC(C)OC(=O)N1CC2COCC(C1)C2Oc1ncnc2c1ccn2-c1ccc(C#N)cc1F (stereo not drawn) [Compound 3] |
| 50 to 100 nM | Cc1c(F)ccc(-n2ccc3c(OC4C5COCC4CN(C(=O)OC(C)(C)C)C5)ncnc32)c1C#N (stereo not drawn) [Compound 21] |
| 100 to 500 nM | CC1(OC(=O)N2CC3COCC(C2)C3Oc2ncnc3c2cnn3-c2ccc(-c3cscn3)cc2F)CC1 (stereo not drawn) [Compound 50] |

| EC50 | Compound |
| --- | --- |
| < 50 nM | CC1(OC(=O)N2CC3COCC(C2)C3Oc2ncnc3c2ccn3-c2ccc(C#N)cc2F)CC1 (stereo not drawn) [Compound 5] |
| 50 to 100 nM | CS(=O)(=O)c1ccc(-n2ccc3c(OC4C5COCC4CN(c4ncc(F)cn4)C5)ncnc32)c(F)c1 (stereo not drawn) [Compound 30] |
| < 50 nM | CC(C)(C)OC(=O)N1CC2COCC(C1)C2Oc1ncnc2c1ccn2-c1ccc(F)cc1F (stereo not drawn) [Compound 6] |
| 100 to 500 nM | CC(C)OC(=O)N1CC2COCC(C1)C2Oc1ncnc2c1ncn2-c1ccc(C#N)cc1Cl (stereo not drawn) [Compound 44] |
| 50 to 100 nM | Fc1cnc(N2CC3COCC(C2)C3Oc2ncnc3c2ccn3-c2ccc(F)cc2F)nc1 (stereo not drawn) [Compound 12] |
| 100 to 500 nM | CC(C)(C)OC(=O)N1CC2COCC(C1)C2Oc1ncnc2c1nnn2-c1ccc(C#N)cc1Cl (stereo not drawn) [Compound 51] |
| 50 to 100 nM | Cc1cccc(-n2ccc3c(OC4C5COCC4CN(C(=O)OC4(C)CC4)C5)ncnc32)c1C#N (stereo not drawn) [Compound 24] |
| 50 to 100 nM | CC1(OC(=O)N2CC3COCC(C2)C3Oc2ncnc3c2ncn3-c2ccc(C#N)cc2F)CC1 (stereo not drawn) [Compound 35] |
| 100 to 500 nM | CC(C)(C)OC(=O)N1CC2COCC(C1)C2Oc1ncnc2c1ccn2-c1ccc(S(C)(=O)=O)cc1F (stereo not drawn) [Compound 25] |
| < 50 nM | CCCOC(=O)N1CC2COCC(C1)C2Oc1ncnc2c1ccn2-c1ccc(C#N)cc1F (stereo not drawn) [Compound 4] |
| 100 to 500 nM | CC1(OC(=O)N2CC3COCC(C2)C3Oc2ncnc3c2cnn3-c2ccc(F)cc2F)CC1 (stereo not drawn) [Compound 46] |
| 100 to 500 nM | CC(C)(C)OC(=O)N1CC2COCC(C1)C2Oc1ncnc2c1CCN2c1ccc(F)cc1F (stereo not drawn) [Compound 10] |
| < 50 nM | CC(C)(C)OC(=O)N1CC2COCC(C1)C2Oc1ncnc2c1ccn2-c1c(F)cc(F)cc1F (stereo not drawn) [Compound 33] |
| 500 to 1000 nM | CC1(OC(=O)N2CC3COCC(C2)C3Oc2ncnc3c2[nH]c(=O)n3-c2ccc(C#N)cc2F)CC1 (stereo not drawn) [Compound 41] |
| < 50 nM | CC(C)(C)OC(=O)N1CC2COCC(C1)C2Oc1ncnc2c1ccn2-c1ccc(C#N)cc1F (stereo not drawn) [Compound 1] |
| 100 to 500 nM | CC1(OC(=O)N2CC3COCC(C2)C3Oc2ncnc3c2OCCN3c2ccc(C#N)cc2F)CC1 (stereo not drawn) [Compound 54] |
| 50 to 100 nM | CCCc1cnc(N2CC3COCC(C2)C3Oc2ncnc3c2ccn3-c2ccc(S(C)(=O)=O)cc2F)nc1 (stereo not drawn) [Compound 31] |
| 50 to 100 nM | Cc1cccc(-n2ccc3c(OC4C5COCC4CN(C(=O)OC(C)(C)C)C5)ncnc32)c1C#N (stereo not drawn) [Compound 23] |
| 50 to 100 nM | CC1(OC(=O)N2CC3COCC(C2)C3Oc2ncnc3c2nnn3-c2ccc(C#N)cc2Cl)CC1 (stereo not drawn) [Compound 52] |
| < 50 nM | CC1(OC(=O)N2CC3COCC(C2)C3Oc2ncnc3c2ccn3-c2ccc(F)cc2F)CC1 (stereo not drawn) [Compound 8] |
| 100 to 500 nM | CC(C)(C)OC(=O)N1CC2COCC(C1)C2Oc1ncnc2c1OCCN2c1ccc(C#N)cc1F (stereo not drawn) [Compound 53] |
| 100 to 500 nM | CC(C)c1noc(N2CC3COCC(C2)C3Oc2ncnc3c2ccn3-c2ccc(F)cc2F)n1 (stereo not drawn) [Compound 29] |
| 100 to 500 nM | CC1(OC(=O)N2CC3COCC(C2)C3Oc2ncnc3c2cnn3-c2ccc(-c3ncco3)cc2F)CC1 (stereo not drawn) [Compound 49] |
| 100 to 500 nM | CC1(OC(=O)N2CC3COCC(C2)C3Oc2ncnc3c2ncn3-c2ccc(C#N)cc2Cl)CC1 (stereo not drawn) [Compound 43] |
| < 50 nM | CC1(OC(=O)N2CC3COCC(C2)C3Oc2ncnc3c2CCN3c2ccc(F)cc2F)CC1 (stereo not drawn) [Compound 11] |
| < 50 nM | CC1(OC(=O)N2CC3COCC(C2)C3Oc2ncnc3c2cnn3-c2ccc(C#N)cc2Cl)CC1 (stereo not drawn) [Compound 40] |
| 100 to 500 nM | CC1(OC(=O)N2CC3COCC(C2)C3Oc2ncnc3c2cnn3-c2ccc(F)cc2F)CC1 (stereo not drawn) [Compound 45] |

From US20120232073A1, “FUSED BICYCLIC PYRIMIDINE DERIVATIVES AND METHODS OF USE THEREOF” (priority 2009, published 2012)
